The record followed here is paper PMC10096648, “A conserved hymenopteran-specific family of cytochrome P450s protects bee pollinators from toxic nectar alkaloids” (Science Advances, 2023).

The target in one data set is T1, CYP336A1 (Apis mellifera, UniProt A0A8U0WT43, D298G).
T1 construct: gene LOC724211; codon-optimised; microsomes of baculovirus-infected High Five insect cells, coexpressed with A. mellifera NADPH-cytochrome P450 reductase
As to the kind of experiment: fluorogenic model substrate assay, recombinant microsomes. The format is biochemical. The settings on record: NADPH; activity present only in the mutant.

Substrate in data set [1]: CN1CCC[C@H]1c1cccnc1
Kind of data set: nicotine depletion by UPLC-MS/MS, recombinant microsomes. The conditions noted are these: NADPH regeneration system, pH 7.6, 30°C, 30 min, 0.78-100 μM nicotine. The format is biochemical, Apis mellifera.

T1 sequence (A0A8U0WT43 entry or part of it D298G): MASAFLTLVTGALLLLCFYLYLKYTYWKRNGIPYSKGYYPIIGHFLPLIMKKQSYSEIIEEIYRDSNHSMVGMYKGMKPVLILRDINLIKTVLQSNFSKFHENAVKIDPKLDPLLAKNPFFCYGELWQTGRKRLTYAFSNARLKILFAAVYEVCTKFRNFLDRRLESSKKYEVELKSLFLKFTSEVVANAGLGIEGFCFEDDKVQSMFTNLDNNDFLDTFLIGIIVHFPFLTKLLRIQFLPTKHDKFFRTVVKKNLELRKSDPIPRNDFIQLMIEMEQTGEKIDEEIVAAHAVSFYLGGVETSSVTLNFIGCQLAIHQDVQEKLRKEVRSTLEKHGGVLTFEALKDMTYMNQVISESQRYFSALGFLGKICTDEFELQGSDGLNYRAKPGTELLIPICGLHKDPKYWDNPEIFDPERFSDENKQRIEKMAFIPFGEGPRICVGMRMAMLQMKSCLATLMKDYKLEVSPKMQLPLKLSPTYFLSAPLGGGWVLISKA

Regarding `O=c1cc(C(F)(F)F)c2ccc(OCc3ccccc3)cc2o1` [BFC, 7-benzyloxy-4-(trifluoromethyl)coumarin], the “fluorogenic model substrate assay, recombinant microsomes” value on CYP336A1 is listed as “the D298G substitution leads to significant activity toward BFC”.

B1: CYP336A1 (Apis mellifera) (protein)
chain: MASAFLTLVTGALLLLCFYLYLKYTYWKRNGIPYSKGYYPIIGHFLPLIMKKQSYSEIIEEIYRDSNHSMVGMYKGMKPVLILRDINLIKTVLQSNFSKFHENAVKIDPKLDPLLAKNPFFCYGELWQTGRKRLTYAFSNARLKILFAAVYEVCTKFRNFLDRRLESSKKYEVELKSLFLKFTSEVVANAGLGIEGFCFEDDKVQSMFTNLDNNDFLDTFLIGIIVHFPFLTKLLRIQFLPTKHDKFFRTVVKKNLELRKSDPIPRNDFIQLMIEMEQTGEKIDEEIVAAHAVSFYLDGVETSSVTLNFIGCQLAIHQDVQEKLRKEVRSTLEKHGGVLTFEALKDMTYMNQVISESQRYFSALGFLGKICTDEFELQGSDGLNYRAKPGTELLIPICGLHKDPKYWDNPEIFDPERFSDENKQRIEKMAFIPFGEGPRICVGMRMAMLQMKSCLATLMKDYKLEVSPKMQLPLKLSPTYFLSAPLGGGWVLISKA
notes: codon-optimised; microsomes of baculovirus-infected High Five insect cells, coexpressed with A. mellifera NADPH-cytochrome P450 reductase
A word on the Km: it is the concentration of substrate that gives half-maximal velocity. Take B1: the Km in data set [1] turned out to be 12.77 µM.
